Laboratory results from patent publication US11286258B2, “Nature-inspired anticancer and antibacterial motifs and pharmaceutical composition thereof” (University of Sharjah, priority 2020, dated 2022).
Converted amounts (≈) assume the structure as drawn.

Columns and labels:
AGS = assay: MTT cell viability, AGS; assay type: cell-based; settings: Homo sapiens, stomach cancer, 48 h of drug treatment, average of three experiments
Description: (§1) Cell viability studies: Cell viability was assessed using the MTT assay as described before. In brief, all cancer cell lines were seeded at a density of 4×10^4/well in 96 well flat-bottom plates. After 24 h from seeding, cells were treated with the synthesized compounds and left for an incubation period of 48 h. Upon reaching the indicated time point, the media was removed and replaced with 200 μL fresh media containing 0.5 mg/mL of MTT tetrazolium dye (Sigma-Aldrich). Cells were then incubated with MTT solution for 2 h at 37° C. The resultant formazan crystals were dissolved in 200 μl/well of DMSO and absorbance was measured at 570 nm using a microplate reader (Thermo Scientific).

SKBR3 = assay: MTT cell viability, SKBR3; assay type: cell-based; settings: Homo sapiens, SK-BR-3; breast cancer; 48 h of drug treatment; average of three experiments
Description: as §1

E. coli ATCC25922 = assay: MIC broth microdilution, E. coli ATCC25922; assay type: cell-based, Escherichia coli; settings: Escherichia coli, ATCC25922; not MDR; overnight incubation
Description: Antibacterial activity: The compounds were tested for the minimum inhibitory concentrations (MIC), which is the lowest concentration of a chemical required to inhibit visible microbial growth following overnight incubation. MIC values were determined using broth microdilution method according to the Clinical and Laboratory Standards Institute guidelines (CLSI, 2015, M07-A10). Mueller-Hinton broth was used as a culture medium in all the experiments. Exponentially growing bacterial cells were prepared in Mueller-Hinton broth at a concentration of approximately 5×10^5 CFU/mL. Two-fold serial dilutions of the test compound (8 concentrations ranged between 100-0.78 μg/mL) were tested. […] In each experiment, solvent (DMSO) was used as a negative control, un-treated control (composing of bacteria in Mueller-Hinton broth) was used as a growth control, blank (culture media alone) was used as sterility control. The 96-well microplate with the test compounds was incubated overnight at 37° C. Turbidity in wells indicated bacterial growth.
The compounds were tested on six MDR Gram-positive bacteria including three clinical isolates of methicillin-resistant Staphylococcus aureus (MRSA-1, MRSA-2 and MRSA-3) and three reference MRSA strains (ATCC33591, ATCC33592 and ATCC700699). They were also tested on three MDR Gram-negative bacteria including New Delhi metallo-beta-lactamase (NDM-1) positive, carbapenem-resistant E. coli (ATCC BAA2469), extended-spectrum beta-lactamase (ESBL) producing, colistin-resistant E. coli (CDC-AR-0346) and carbapenem-resistant Acinetobacter baumannii (ATCC BAA1605), in addition to two non-MDR bacteria from the same species, namely E. coli (ATCC 25922) Acinetobacter baumannii (ATCC 19606).

HEP3B = assay: MTT cell viability, HEP3B; assay type: cell-based; settings: Homo sapiens, liver cancer, 48 h of drug treatment, average of three experiments
Source text: Cell culture: In this study five different cancer cell lines were used, human lung carcinoma (A549), human breast adenoma (MCF-7), Cervical carcinoma (Hela), hepatocellular carcinoma (Hep3B), and colorectal adenocarcinoma (HCT-116). These cells were obtained from the European Collection of Cell Cultures (ECACC, UK). Hep3B cells were maintained in Dulbecco's Modified Eagle Medium (DMEM: Sigma-Aldrich), and the four other cell lines were maintained in Roswell Park Memorial Institute medium (RPMI, Sigma-Aldrich, St. Louis, Mo., USA), which was supplemented with 10% fetal bovine serum (FBS, Sigma-Aldrich) and 1% penicillin/streptomycin (Sigma-Aldrich). Cells were incubated all the time at 37° C. in a humidified atmosphere of 5% CO2. Cell viability studies: Cell viability was assessed using the MTT assay as described before. In brief, all cancer cell lines were seeded at a density of 4×10^4/well in 96 well flat-bottom plates. After 24 h from seeding, cells were treated with the synthesized compounds and left for an incubation period of 48 h. Upon reaching the indicated time point, the media was removed and replaced with 200 μL fresh media containing 0.5 mg/mL of MTT tetrazolium dye (Sigma-Aldrich). Cells were then incubated with MTT solution for 2 h at 37° C. The resultant formazan crystals were dissolved in 200 μl/well of DMSO and absorbance was measured at 570 nm using a microplate reader (Thermo Scientific).

MDA-MB-468 = assay: MTT cell viability, MDA-MB-468; assay type: cell-based; settings: Homo sapiens, breast cancer, 48 h of drug treatment, average of three experiments
Description: as §1

MDA-MB-231 = assay: MTT cell viability, MDA-MB-231; assay type: cell-based; settings: Homo sapiens, breast cancer, 48 h of drug treatment, average of three experiments
Description: as §1

Hep3B cells = assay: Western blot, apoptotic biomarkers, tumor suppressor genes and oncogenes, Hep3B; assay type: cell-based, human; settings: for PARP cleavage / Cleavage of caspase7 and caspase-3: 1 to 4 μM, 48 h; for Cleavage of caspase7 and caspase-3: clear at 4 μM; for c-Myc oncogene level: dose-dependent manner
Description: Western blotting (apoptotic biomarkers, tumor suppressor genes and oncogenes): Hep3B and HCT-116 cells were treated with 1f and 1h compounds with increasing concentrations from 1 to 4 μM for 48 h. After reaching the time point, proteins were extracted from the collected cells after their lyses, and protein quantification was performed using a Detergent compatible (DC) protein assay kit (Bio-Rad) following the manufacturer's instructions. 12% SDS-polyacrylamide gels were used to separate the proteins, following the proteins were transferred onto nitrocellulose membrane using a semi-dry transfer cell. After transfer, membranes were incubated with primary antibodies and the incubation was left overnight at 4° c. The following antibodies were implicated: anti-β actin (Cell Signalling #4970), anti-caspase3 (Cell Signalling #14220), anti-caspase-7 (Cell Signalling33 #9492), anti-PARP (Cell Signalling #9532), anti-P53 (Cell Signalling #2527), anti-C-myc (Cell Signalling #18583), and anti-BAX (#5023). Finally, membranes were incubated with secondary conjugated with horseradish peroxidase. The indicated proteins were detected by chemiluminescence.

SMILES | IC50 (AGS) | IC50 (SKBR3) | MIC (E. coli ATCC25922) | IC50 (HEP3B) | IC50 (MDA-MB-468) | IC50 (MDA-MB-231) | PARP cleavage (Hep3B cells) | Cleavage of caspase7 and caspase-3 (Hep3B cells) | c-Myc oncogene level (Hep3B cells)
FC(F)(F)c1ccc(N/N=C2\C=C[C@@]3(CC2)CC[C@@H]2NCCc4c2n3c2ccccc42)cc1 (racemic) [Compound 1e] | 3310 ± 120 nM | 1960 ± 80 nM | 6.25 µg/mL (≈ 13.9 µM) | 2030 ± 80 nM | 2500 ± 130 nM | 3630 ± 60 nM | – | – | –
Cc1ccc2c(c1)c1c3n2[C@@]2(C=C/C(=N\Nc4ccc(C(F)(F)F)cc4)CC2)CC[C@@H]3NCC1 [Compound 1h] | – | – | 12.5 µg/mL (≈ 26.9 µM) | 2560 ± 70 nM | – | – | PARP cleavage | cleavage | downregulate
FC(F)(F)Oc1ccc(N/N=C2\C=C[C@@]3(CC2)CC[C@@H]2NCCc4c2n3c2ccccc42)cc1 [Compound 1f] | – | – | 12.5 µg/mL (≈ 26.8 µM) | 2640 ± 30 nM | – | – | PARP cleavage | cleavage | downregulate
COc1ccc2c(c1)c1c3n2[C@@]2(C=C/C(=N\Nc4ccc(C(F)(F)F)cc4)CC2)CC[C@@H]3NCC1 [Compound 1k] | 4660 ± 150 nM | 4100 ± 210 nM | 6.25 µg/mL (≈ 13 µM) | 2276 ± 10 nM | 2490 ± 160 nM | 4030 ± 160 nM | – | – | –
